Measured values reported in US9765075B2, “Substituted bridged urea analogs as sirtuin modulators” (GLAXOSMITHKLINE LLC, priority 2013, dated 2017).

Molecular target: T1, SIRT1 (Homo sapiens, UniProt Q96EB6)
T1 sequence (Q96EB6 1-747): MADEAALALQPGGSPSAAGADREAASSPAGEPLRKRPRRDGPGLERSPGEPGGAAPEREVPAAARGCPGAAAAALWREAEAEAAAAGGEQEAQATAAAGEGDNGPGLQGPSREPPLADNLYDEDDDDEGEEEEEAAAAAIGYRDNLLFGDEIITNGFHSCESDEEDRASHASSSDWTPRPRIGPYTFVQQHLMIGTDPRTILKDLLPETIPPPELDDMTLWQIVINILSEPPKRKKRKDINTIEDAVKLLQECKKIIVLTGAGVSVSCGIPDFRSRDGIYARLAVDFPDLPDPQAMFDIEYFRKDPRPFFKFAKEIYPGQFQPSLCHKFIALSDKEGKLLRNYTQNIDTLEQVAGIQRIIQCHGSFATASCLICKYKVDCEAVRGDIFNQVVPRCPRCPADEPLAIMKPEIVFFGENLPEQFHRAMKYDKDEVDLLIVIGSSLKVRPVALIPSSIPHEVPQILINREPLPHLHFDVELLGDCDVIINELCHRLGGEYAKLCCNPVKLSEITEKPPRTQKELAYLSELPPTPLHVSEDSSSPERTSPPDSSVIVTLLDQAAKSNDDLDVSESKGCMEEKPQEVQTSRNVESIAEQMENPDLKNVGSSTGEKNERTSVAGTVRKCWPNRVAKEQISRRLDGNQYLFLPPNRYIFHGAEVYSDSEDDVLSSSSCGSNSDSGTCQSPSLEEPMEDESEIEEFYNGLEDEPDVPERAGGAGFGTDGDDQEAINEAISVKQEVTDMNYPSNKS
Test: Trp mass spectrometry assay (SIRT1 activation)
Format: biochemical
Conditions: Trp mass spectrometry assay; for Tryp AVG EC1.5 (μM): EC1.5 = concentration of test compound that results in 150% activation of SIRT1; for Emax: percent maximum fold activation of SIRT1, read-out: Tryp % Fold Act
Method in brief: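 N-His-tagged SIRT1 (10 nM), expressed in E. coli, was incubated with 0.5 μM Ac-RHKK(Ac)W-NH2 peptide and 120 μM NAD+ for 25 min at 25 °C in HEPES pH 7.5 with […]. The reaction was stopped with formic acid and O-acetyl-ADP-ribose or deacetylated peptide was quantified by mass spectrometry. Results are given as EC1.5 and percent maximal activation relative to DMSO control.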

Structure (SMILES)	Tryp AVG EC1.5 (μM)	Emax [%]
COc1cc(NC(=O)N2c3nc(-c4cccc(N5CCCC5)c4)ccc3N3CC[C@H]2C3)ncn1 [Example 132]	B (EC1.5 1-25 μM)	≥ 150
COc1cc(NC(=O)N2c3nc(-c4ccnc(C(F)(F)F)c4)ccc3N3CC[C@H]2C3)ncn1 [Example 133]	A (EC1.5<1 μM)	≥ 150
COc1cc(NC(=O)N2c3nc(-c4ccccc4C(F)(F)F)ccc3N3CC[C@H]2C3)ncn1 [Example 134]	C (EC1.5>25 μM)	< 150
O=C(Nc1ccccn1)N1c2nc(-c3cccc(N4CCCC4)c3)ccc2N2CC[C@H]1C2 [Example 136]	A (EC1.5<1 μM)	≥ 150
O=C(Nc1ccccn1)N1c2nc(-c3ccccc3C(F)(F)F)ccc2N2CC[C@H]1C2 [Example 137]	C (EC1.5>25 μM)	< 150
N#Cc1cccc(-c2ccc3c(n2)N(C(=O)Nc2ccccn2)[C@H]2CCN3C2)c1 [Example 139]	A (EC1.5<1 μM)	≥ 150
COc1cc(NC(=O)N2c3nc(-c4cccc(C#N)c4)ccc3N3CC[C@H]2C3)ncn1 [Example 140]	A (EC1.5<1 μM)	≥ 150
O=C(Nc1ccc(F)cn1)N1c2nc(-c3cccc(Cl)c3)ccc2N2CCC[C@H]1C2 [Example 141]	A (EC1.5<1 μM)	≥ 150
O=C(Nc1cccnn1)N1c2nc(C3CCCC(C(F)(F)F)C3)ccc2N2CC[C@H]1C2 (some centres unmarked) [Example 143]	B (EC1.5 1-25 μM)	≥ 150
O=C(Nc1ccc(F)cn1)N1c2nc(C3CCCC(C(F)(F)F)C3)ccc2N2CC[C@H]1C2 (some centres unmarked) [Example 144]	B (EC1.5 1-25 μM)	≥ 150
O=C(Nc1cncc(F)c1)N1c2nc(C3CCCC(C(F)(F)F)C3)ccc2N2CC[C@H]1C2 (some centres unmarked) [Example 145]	A (EC1.5<1 μM)	≥ 150
O=C(Nc1ccc(F)cn1)N1c2nc(-c3cccc(OC[C@@H](O)CO)c3)ccc2N2CC[C@H]1C2 [Example 146]	B (EC1.5 1-25 μM)	≥ 150
N#Cc1cccc(-c2ccc3c(n2)N(C(=O)Nc2ccncc2F)[C@H]2CCN3C2)c1 [Example 147]	B (EC1.5 1-25 μM)	≥ 150
O=C(Nc1ccncc1F)N1c2nc(C3CCCC(C(F)(F)F)C3)ccc2N2CC[C@H]1C2 (some centres unmarked) [Example 148]	B (EC1.5 1-25 μM)	≥ 150
Cc1nc(NC(=O)N2c3nc(C4CCCC(C(F)(F)F)C4)ccc3N3CC[C@H]2C3)sc1C (some centres unmarked) [Example 149]	B (EC1.5 1-25 μM)	≥ 150
O=C(Nc1ccncc1F)N1c2nc(-c3cccc(N4CCCC4)c3)ccc2N2CC[C@H]1C2 [Example 150]	A (EC1.5<1 μM)	≥ 150
O=C(Nc1ccncc1F)N1c2nc(-c3ccccc3C(F)(F)F)ccc2N2CC[C@H]1C2 [Example 152]	C (EC1.5>25 μM)	≥ 150
O=C(Nc1ccnc(F)c1)N1c2nc(C3CCCC(C(F)(F)F)C3)ccc2N2CC[C@H]1C2 (some centres unmarked) [Example 154]	B (EC1.5 1-25 μM)	≥ 150
O=C(Nc1ccccn1)N1c2nc(-c3cccc(OC[C@@H](O)CO)c3)ccc2N2CC[C@H]1C2 [Example 155]	B (EC1.5 1-25 μM)	≥ 150
COc1cc(NC(=O)N2c3nc(-c4cccc(OC[C@@H](O)CO)c4)ccc3N3CC[C@H]2C3)ncn1 [Example 156]	A (EC1.5<1 μM)	≥ 150
COc1cc(-c2cccc(C(F)(F)F)c2)nc2c1N1CC[C@@H](C1)N2C(=O)Nc1ccccn1 [Example 159]	A (EC1.5<1 μM)	≥ 150
COc1cc(-c2cccc(C(F)(F)F)c2)nc2c1N1CC[C@@H](C1)N2C(=O)Nc1ccncc1 [Example 160]	A (EC1.5<1 μM)	≥ 150
COc1cc(-c2cccc(C(F)(F)F)c2)nc2c1N1CC[C@@H](C1)N2C(=O)Nc1nc(C)c(C)s1 [Example 161]	A (EC1.5<1 μM)	≥ 150
COc1cc(NC(=O)N2c3nc(-c4cccc(C(F)(F)F)c4)ccc3N3CCC2CC3)ncn1 [Example 168]	A (EC1.5<1 μM)	≥ 150
COc1cc(NC(=O)N2c3nc(-c4cccc(C(F)(F)F)c4)ccc3N3CCC2CC3)nc(OC)n1 [Example 170]	A (EC1.5<1 μM)	≥ 150
Cc1nc(NC(=O)N2c3nc(-c4cccc(C(F)(F)F)c4)ccc3N3CCC2CC3)sc1C [Example 173]	A (EC1.5<1 μM)	≥ 150
N#Cc1cccc(-c2ccc3c(n2)N(C(=O)Nc2cccc(-c4cnco4)c2)[C@H]2CCN3C2)c1 [Example 178]	A (EC1.5<1 μM)	≥ 150
Cc1nc(NC(=O)N2c3nc(-c4cccc(C#N)c4)ccc3N3CC[C@H]2C3)sc1C [Example 179]	A (EC1.5<1 μM)	≥ 150
N#Cc1cccc(-c2ccc3c(n2)N(C(=O)Nc2cccnc2)[C@H]2CCN3C2)c1 [Example 180]	A (EC1.5<1 μM)	≥ 150

Now from value to molecule:

Tryp AVG EC1.5 (μM)	Emax [%]	Structure (SMILES)
A (EC1.5<1 μM)	≥ 150	COc1cc(NC(=O)N2c3nc(-c4cccc(OC(F)(F)F)c4)ccc3N3CC[C@H]2C3)ncn1 [Example 135]
A (EC1.5<1 μM)	≥ 150	O=C(Nc1ccccn1)N1c2nc(-c3cccc(OC(F)(F)F)c3)ccc2N2CC[C@H]1C2 [Example 138]
A (EC1.5<1 μM)	≥ 150	O=C(Nc1ccccn1)N1c2nc(-c3ccnc(C(F)(F)F)c3)ccc2N2CC[C@H]1C2 [Example 142]
A (EC1.5<1 μM)	≥ 150	O=C(Nc1ccncc1F)N1c2nc(-c3ccnc(C(F)(F)F)c3)ccc2N2CC[C@H]1C2 [Example 151]
A (EC1.5<1 μM)	≥ 150	O=C(Nc1ccncc1F)N1c2nc(-c3cccc(OC(F)(F)F)c3)ccc2N2CC[C@H]1C2 [Example 153]
B (EC1.5 1-25 μM)	≥ 150	O=C(Nc1ccncc1F)N1c2nc(-c3cccc(OC[C@@H](O)CO)c3)ccc2N2CC[C@H]1C2 [Example 157]
B (EC1.5 1-25 μM)	≥ 150	O=C(Nc1ccccn1)N1c2nc(-c3cccc(C(F)(F)F)c3)ccc2N2CCC1CC2 [Example 158]
A (EC1.5<1 μM)	≥ 150	O=C(Nc1cccc(-c2cnco2)c1)N1c2nc(-c3cccc(OC(F)(F)F)c3)ccc2N2CC[C@H]1C2 [Example 162]
A (EC1.5<1 μM)	≥ 150	O=C(Nc1cccnc1)N1c2nc(-c3cccc(OC(F)(F)F)c3)ccc2N2CC[C@H]1C2 [Example 163]
A (EC1.5<1 μM)	≥ 150	O=C(Nc1cnccn1)N1c2nc(-c3cccc(OC(F)(F)F)c3)ccc2N2CC[C@H]1C2 [Example 164]
A (EC1.5<1 μM)	≥ 150	Cc1nc(NC(=O)N2c3nc(-c4cccc(OC(F)(F)F)c4)ccc3N3CC[C@H]2C3)sc1C [Example 165]
A (EC1.5<1 μM)	≥ 150	O=C(Nc1ccncn1)N1c2nc(-c3cccc(OC(F)(F)F)c3)ccc2N2CC[C@H]1C2 [Example 166]
B (EC1.5 1-25 μM)	≥ 150	Cn1cc(NC(=O)N2c3nc(-c4cccc(OC(F)(F)F)c4)ccc3N3CC[C@H]2C3)cn1 [Example 167]
B (EC1.5 1-25 μM)	≥ 150	COc1nccc(NC(=O)N2c3nc(-c4cccc(C(F)(F)F)c4)ccc3N3CCC2CC3)n1 [Example 169]
B (EC1.5 1-25 μM)	≥ 150	O=C(Nc1cccnn1)N1c2nc(-c3cccc(C(F)(F)F)c3)ccc2N2CCC1CC2 [Example 171]
B (EC1.5 1-25 μM)	≥ 150	O=C(Nc1ccncn1)N1c2nc(-c3cccc(C(F)(F)F)c3)ccc2N2CCC1CC2 [Example 172]
A (EC1.5<1 μM)	≥ 150	O=C(Nc1cncc(F)c1)N1c2nc(-c3cccc(OC(F)(F)F)c3)ccc2N2CC[C@H]1C2 [Example 174]
A (EC1.5<1 μM)	≥ 150	Cn1ncc2cc(NC(=O)N3c4nc(-c5cccc(OC(F)(F)F)c5)ccc4N4CC[C@H]3C4)ccc21 [Example 175]
A (EC1.5<1 μM)	≥ 150	COc1nccc(NC(=O)N2c3nc(-c4cccc(OC(F)(F)F)c4)ccc3N3CC[C@H]2C3)n1 [Example 176]
A (EC1.5<1 μM)	≥ 150	Cn1ccc(NC(=O)N2c3nc(-c4cccc(OC(F)(F)F)c4)ccc3N3CC[C@H]2C3)n1 [Example 177]
